Assay results: PMC4512758 (Analytical biochemistry, 2015)
Values joined by “and” are separate entries in the source; they are usually repeats but may differ in a detail not shown here. Identical values can stand only once. Like-named read-outs stand apart in the source and are kept apart here.

How the values were obtained:
[1] = target: Translocator protein (TSPO) (Homo sapiens, UniProt P30536); assay: Frontal affinity chromatography; format: binding; conditions: for Breakthrough time: MMAC (U87MG), ammonium acetate [10 mM
TSPO [2] = target: T1, TSPO (Homo sapiens, UniProt P30536); assay: Frontal affinity chromatography on MMAC-OT; format: binding
TSPO [3] = conditions: read-out: Reported Ki using marker ligand PK; cited from earlier work
[4] = target: mitochondrial permeability transition pore (mPTP); assay: Frontal affinity chromatography on MMAC-; format: binding, human; conditions: read-out: Kd on MMAC-(U87MG); mPTP ligand; ammonium acetate [10 mM, pH 7.4]
mPTP = conditions: cited from earlier work
[5] = target: DIPY binding site of TSPO (Homo sapiens, UniProt P30536); assay: Frontal displacement on MMAC-
TSPO [6] = target: T1, TSPO; assay: Single displacement study for ranking TSPO ligands on MMAC-; format: binding; conditions: MMAC-(U87MG)
[7] = target: sulfonylurea receptor (SUR); assay: Frontal affinity chromatography on MMAC-; format: binding, human; conditions: read-out: Kd on MMAC-(U87MG); SUR ligand; ammonium acetate [10 mM, pH 7.4]
SUR [8] = assay: Frontal affinity chromatography on MMAC-OT; format: binding, human; conditions: read-out: Kd on MMAC-OT (HEK-293); SUR ligand; open tubular column
SUR [9] = conditions: read-out: Reported Kd; SUR ligand; cited from earlier work

Translocator protein (TSPO), sequence (P30536 whole entry): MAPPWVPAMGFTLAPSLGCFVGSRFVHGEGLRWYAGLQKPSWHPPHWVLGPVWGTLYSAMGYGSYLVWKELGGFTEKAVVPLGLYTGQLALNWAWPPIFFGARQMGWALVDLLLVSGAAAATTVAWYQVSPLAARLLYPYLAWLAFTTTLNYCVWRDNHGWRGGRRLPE
DIPY binding site of TSPO, sequence (P30536 whole entry): as above
T1 sequence (P30536 whole entry): as above

SMILES: OCCN(CCO)c1nc(N2CCCCC2)c2nc(N(CCO)CCO)nc(N3CCCCC3)c2n1 [DIPY, dipyridamole]
- Breakthrough time ([1]; pH 5.9]): 100 min
- Breakthrough time ([1]; pH 5.9] with 10% methanol): 50 min
- Breakthrough time ([1]; pH 7.4]): 200 min
- Kd (TSPO [2]): 760 ± 250 nM
- Ki (TSPO [3]): 680 nM and 679 nM

SMILES: O=C(O)Cc1ccccc1Nc1c(Cl)cccc1Cl [Diclofenac, diclofenac]
- Kd [4]: 1200 ± 190 nM
- Reported Kd (mPTP induction) (mPTP): induces mPTP at low micromolar range [1, 37]

SMILES: CN1C(=O)CN=C(c2ccccc2F)c2cc([N+](=O)[O-])ccc21 [Flu, flunitrazepam]
- Kd [1]: 290 ± 60 nM
- Increase of breakthrough time of DIPY ([5]; MMAC-(U87MG), concentrations greater than 0.5 μM): 10-15%
- Displacement of DIPY ([5]; MMAC-(U87MG), concentrations lower than 0.5 μM): did not significantly displace DIPY
- Effect on retention of DIPY in single displacement study (TSPO [6]; 2.875 μM compound with 0.125 μM DIPY): increased the retention of DIPY
- Increase of retention of 0.125 μM DIPY (TSPO [6]; 2.875 μM compound, pH 5.9): ~ 15%
- Ki (TSPO [3]): 211 nM

SMILES: COc1ccc(Cl)cc1C(=O)NCCc1ccc(S(=O)(=O)NC(=O)NC2CCCCC2)cc1 [Glibenclamide, glibenclamide]
- Kd [7]: 790 ± 390 nM
- Kd (SUR [8]): 990 ± 520 nM
- Kd (SUR [9]): 360 ± 50 nM

SMILES: CCC1=C(C)c2cc3[nH]c(cc4[nH]c(cc5nc(cc1n2)C(C)=C5CC)c(C)c4CCC(=O)O)c(CCC(=O)O)c3C [MIX, mesoporphyrin IX]
- Ki ([5]; read-out: Ki for DIPY binding site on MMAC(U87MG), 0.5 μM DIPY as marker, ammonium acetate [10 mM, pH 5.9]): 1470 ± 120 nM
- Ki (TSPO [3]): 650 nM

SMILES: C=CC1=C(C)c2cc3[nH]c(cc4nc(cc5[nH]c(cc1n2)c(C)c5CCC(=O)O)C(CCC(=O)O)=C4C)c(C)c3C=C [PIX, protoporphyrin IX]
- Ki [5]: 3330 ± 1350 nM
- Ki (TSPO [3]): 2920 nM

SMILES: C=C(C)[C@H]1Cc2c(ccc3c2O[C@@H]2COc4cc(OC)c(OC)cc4[C@@H]2C3=O)O1 [Rot, rotenone]
- Ki [5]: 3400 ± 1270 nM
- Ki (TSPO [3]): 20900 nM
